Measured values taken from US7314620B2, “Methods for diagnosis and treatment of PH domain signal transduction disorders” (New York University, priority 1995, dated 2008).
“And” between values parts separate entries of the source, which are not always exact repeats. Equal entries are not always repeated. Where two headings read alike, the source gives them in different places.

Legend:
SH2 domain of Lck = target: T1, SH2 domain of Lck (Homo sapiens, UniProt P06239); test: Equilibrium gel filtration control with SH2 domain; assay type: binding; details: low salt; 50 mM MOPS pH 6.8, 100 mM NaCl
T1 construct: Control experiments performed with the SH2 domain of Lck; made in house
T1 sequence (P06239 127-224 limits assumed): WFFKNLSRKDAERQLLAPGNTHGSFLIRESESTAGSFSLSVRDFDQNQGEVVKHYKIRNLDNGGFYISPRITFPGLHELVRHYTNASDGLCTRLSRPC

whole PLC-δ1 = target: T2, whole PLC-δ1 (Homo sapiens, UniProt P51178); details: sucrose-loaded PIP2-containing vesicles; Rebecchi et al. 1992; read-out: apparent KD; cited from earlier work
T2 sequence (P51178 1-756): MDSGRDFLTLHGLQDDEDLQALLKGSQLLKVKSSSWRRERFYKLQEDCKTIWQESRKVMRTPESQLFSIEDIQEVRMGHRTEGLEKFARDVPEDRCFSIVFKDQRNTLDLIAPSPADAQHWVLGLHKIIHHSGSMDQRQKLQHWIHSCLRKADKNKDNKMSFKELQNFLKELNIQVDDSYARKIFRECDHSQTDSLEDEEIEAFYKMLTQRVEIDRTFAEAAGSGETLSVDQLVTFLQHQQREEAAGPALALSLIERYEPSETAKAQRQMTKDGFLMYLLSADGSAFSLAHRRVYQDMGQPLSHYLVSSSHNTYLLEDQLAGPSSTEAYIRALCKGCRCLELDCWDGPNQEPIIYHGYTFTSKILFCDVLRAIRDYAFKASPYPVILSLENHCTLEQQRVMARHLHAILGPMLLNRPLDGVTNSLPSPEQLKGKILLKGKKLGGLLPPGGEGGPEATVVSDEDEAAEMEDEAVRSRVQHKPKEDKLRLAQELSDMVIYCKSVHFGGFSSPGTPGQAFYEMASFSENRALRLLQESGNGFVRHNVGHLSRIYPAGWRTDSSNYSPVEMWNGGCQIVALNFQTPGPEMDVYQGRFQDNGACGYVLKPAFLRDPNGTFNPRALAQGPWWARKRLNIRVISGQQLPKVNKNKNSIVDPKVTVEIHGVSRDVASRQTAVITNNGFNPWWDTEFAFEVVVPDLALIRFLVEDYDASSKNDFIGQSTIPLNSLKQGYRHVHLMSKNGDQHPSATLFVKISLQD

[1] = target: T3, N-terminal pleckstrin PH domain (Homo sapiens, UniProt P08567); details: PIP2 in detergent; Harlan et al. 1994; cited from earlier work
T3 sequence (P08567 4-101 limits assumed): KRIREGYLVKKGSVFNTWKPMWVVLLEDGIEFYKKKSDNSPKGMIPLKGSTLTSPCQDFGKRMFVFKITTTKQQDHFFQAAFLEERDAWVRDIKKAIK

[2] = target: T4, PLCδ-PH (PH domain of rat PLC-δ1) (Rattus norvegicus, UniProt P10688); test: Isothermal titration calorimetry of inositol polyphosphate / PIP2 vesicle binding to PLCδ-PH; details: for Kd: read-out: KD
T4 construct: initiator methionine (N); made in house; host or cells: Escherichia coli (pET11a, T7 system)
T4 sequence (P10688 20-136): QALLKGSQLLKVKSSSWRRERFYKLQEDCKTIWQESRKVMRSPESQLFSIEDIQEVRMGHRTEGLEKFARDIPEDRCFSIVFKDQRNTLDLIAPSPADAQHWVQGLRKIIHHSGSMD
Protocol: The resulting titration curve was fit using Omega software (Wiseman et al., 1989).
All experiments utilized the OMEGA instrument from MicroCal (Wiseman, T. et al., Anal. Biochem. 179, 131-137, 1989), in the laboratory of Prof. Julian Sturtevant at Yale. Titrations were performed at 25° C. in 50 mM MOPS, 100 mM NaCl, pH 6.8 or 100 mM NH4OAc at pH 6.8. […] For each titration, PH domain solution was dialyzed exhaustively against the buffer used for dilution of highly concentrated stocks of ligand. Heats for dilution of the ligand solutions were determined in separate titrations of ligand into buffer solution present in the cell.
Higher concentrations were employed for weaker binding events. […] Stoichiometry, binding constant (Kβ) and ΔH were all allowed to float in the fitting procedure.
A titration curve such as that to an equation describing a simple-binding reaction (Wiseman, T. et al., Anal. Biochem. 179, 131-137, 1989). From this fit, values for the binding constant, stoichiometry and ΔH for the binding reaction are ascertained. […] Ferris, C. D. et al, Nature, 342, 87-89, 1989.

[3] = tested on: any PH domain (PLCδ-PH, Dyn-PH, PlecN-PH); test: Centrifugation-based assay of PH domain binding to lipid vesicles; details: lipid at 5% in DMPC vesicles
Protocol: Attempts to detect PH domain association with lipid vesicles were performed exactly as described by Harlan, J. E. et al., Nature 371, 168-170, 1994. In addition to using the BCA protein assay reagent, for which lipid blanks were rather high compared with the values expected for the protein concentrations employed, we also measured OD278 of the supernatants after addition of SDS in order to detect removal of protein upon pelleting vesicles. […] Initially, we performed a centrifugation-based assay, using the conditions described by Harlan, J. E. et al., Nature 371, 168-170, 1994. […] Similarly, we were unable to detect association of any of the PH domains with the same vesicles by using size-exclusion chromatography to separate protein and lipid. Any complexes between the PH domains and these vesicles therefore form with low affinity and/or have fast dissociation kinetics, such that they dissociate in the separation methods employed.

[4] = ITC, PIP2 at 5% in DMPC vesicles

## Phosphatidylinositol-(4,5)-bisphosphate [PIP2]
SH2 domain of Lck
  binding to vesicles: also binds
Whole PLC-δ1
  Kd: ~2500 nM
[1]
  Kd: ~30000 nM
[2]; [4]
  PIP2 in the vesicle preparation available for PLCδ-PH binding (apparent stoichiometry): 57%
  Kd: 1000 nM and 950 nM
[2]; PIP2 in vesicles
  binding affinity in words: submicromolar affinities
[2]; individual titrations, 25° C
  ΔG: -8.22 kcal/M and -7.74 kcal/M
  ΔH: -13.6 ± 0.4 kcal/M and -17.4 ± 0.4 kcal/M
  ΔS: −18.1 cal · M^−1 · K^−1 and −32.4 cal · M^−1 · K^−1
[2]; individual titrations, 25° C, pH 6.8, quoted for IPn as the ligand, PIP2 in vesicles assuming 50% available
  Stoichiometry n: 0.88 ± 0.02 and 0.87 ± 0.02
[2]; individual titrations, 25° C, pH 6.8
  Kd: 950 nM and 2120 nM
[3]
  binding to vesicles: no binding
